Reference: PMC6232652 (Computational and Structural Biotechnology Journal, 2018)

How the values were obtained:
MCF-7 cells = assay: MTT cytotoxicity assay, MCF-7; format: cell-based; details: Homo sapiens, MCF7, 72 h, read-out: IC50 MCF-7, MTT, 72 h, mean ± SD
HepG2 cells = assay: MTT cytotoxicity assay, HepG2; format: cell-based; details: Homo sapiens, HepG2, 72 h, read-out: IC50 HepG2, MTT, 72 h, mean ± SD
A549 cells [1] = assay: MTT cytotoxicity assay, A549; format: cell-based; details: Homo sapiens, A549, 72 h, read-out: IC50 A549, MTT, 72 h, mean ± SD
A549 cells [2] = assay: Acridine orange; format: cell-based; details: 12 h, 4.20 μM 14d, 5.38 μM 19b
A549 cells [3] = assay: Cell cycle analysis by flow cytometry; details: 12 h, 4.20 μM 14d, 5.38 μM 19b; for Freq Sub-G1: control 0.07; for Freq G2 (percentage of cells in G2/M phase): control 18.21; for Freq S: control 32.62; for Freq G1: control 48.59
[4] = previous investigation; cited from earlier work
EGFR = details: read-out: IC50 (EGFR); previous investigation; cited from earlier work

Compound | IC50 (MCF-7 cells) | IC50 (HepG2 cells) | IC50 (A549 cells [1]) | also measured
O=C(N/N=C/c1ccco1)Nc1cc2c(Nc3ccc(F)c(Cl)c3)ncnc2cc1O[C@H]1CCOC1 [10a, (S,E)-N-(4-((3-chloro-4-fluorophenyl)amino)-7-((tetrahydrofuran-3-yl)oxy)quinazolin-6-yl)-2-(furan-2-ylmethylene)hydrazine carboxamide] | 33.4 ± 0.97 µM | 35.2 ± 1.53 µM | – | –
Cc1ccc(/C=N/NC(=O)Nc2cc3c(Nc4ccc(F)c(Cl)c4)ncnc3cc2O[C@H]2CCOC2)o1 [10b, (S,E)-N-(4-((3-Chloro-4-fluorophenyl)amino)-7-((tetrahydrofuran-3-Yl)Oxy)quinazolin-6-Yl)-2-((5-methylfuran-2-Yl)methylene)hydrazine carboxamide] | 34.8 ± 1.01 µM | 33.2 ± 1.46 µM | 28.2 ± 1.34 µM | –
Cc1ccc(/C=N/NC(=O)Nc2cc3c(Nc4ccc(F)c(Cl)c4)ncnc3cc2O[C@H]2CCOC2)s1 [10c, (S,E)-N-(4-((3-chloro-4-fluorophenyl)amino)-7-((tetrahydrofuran-3-yl)oxy)quinazolin-6-yl)-2-((5-methylthiophen-2-yl)methylene)hydrazine carboxamide] | 26.1 ± 1.33 µM | 29.2 ± 1.43 µM | 28.4 ± 0.56 µM | –
CCc1ccc(/C=N/NC(=O)Nc2cc3c(Nc4ccc(F)c(Cl)c4)ncnc3cc2O[C@H]2CCOC2)s1 [10d, (S,E)-N-(4-((3-chloro-4-fluorophenyl)amino)-7-((tetrahydrofuran-3-Yl)oxy)quinazolin-6-Yl)-2-((5-ethylthiophen-2-Yl)methylene)hydrazine carboxamide] | – | 36.2 ± 1.78 µM | 34.23 ± 0.31 µM | –
O=C(N/N=C/c1ccc[nH]1)Nc1cc2c(Nc3ccc(F)c(Cl)c3)ncnc2cc1O[C@H]1CCOC1 [10e, (S,E)-2-((1H-pyrrol-2-Yl)methylene)-N-(4-((3-chloro-4-fluorophenyl)amino)-7-((tetrahydrofuran-3-Yl)oxy)quinazolin-6-Yl)hydrazine carboxamide] | 1.21 ± 0.19 µM | 0.59 ± 0.02 µM | 2.41 ± 0.32 µM | –
COc1cc2ncnc(Nc3ccc(F)c(Cl)c3)c2cc1NC(=O)N/N=C/c1ccco1 [11a, (E)-N-(4-((3-chloro-4-fluorophenyl)amino)-7-methoxyquinazolin-6-yl)-2-(furan-2-ylmethylene)hydrazine carboxamide] | – | 29.7 ± 1.86 µM | 26.2 ± 1.23 µM | –
COc1cc2ncnc(Nc3ccc(F)c(Cl)c3)c2cc1NC(=O)N/N=C/c1ccc(C)o1 [11b, (E)-N-(4-((3-chloro-4-fluorophenyl)amino)-7-methoxyquinazolin-6-yl)-2-((5-methylfuran-2-yl)methylene)hydrazine carboxamide] | 35.2 ± 81 µM | 30.2 ± 1.16 µM | 28.2 ± 1.34 µM | –
COc1cc2ncnc(Nc3ccc(F)c(Cl)c3)c2cc1NC(=O)N/N=C/c1ccc(C)s1 [11c, (E)-N-(4-((3-chloro-4-fluorophenyl)amino)-7-methoxyquinazolin-6-yl)-2-((5-methylthiophen-2-yl)methylene)hydrazine carboxamide] | 28.1 ± 1.13 µM | 27.4 ± 1.03 µM | 29.3 ± 0.36 µM | –
CCc1ccc(/C=N/NC(=O)Nc2cc3c(Nc4ccc(F)c(Cl)c4)ncnc3cc2OC)s1 [11d, (E)-N-(4-((3-chloro-4-fluorophenyl)amino)-7-methoxyquinazolin-6-yl)-2-((5-ethylthiophen-2-yl)methylene)hydrazine carboxamide] | – | 35.2 ± 1.08 µM | 35.3 ± 0.42 µM | –
O=C(N/N=C/CN1CCCCC1)Nc1cc2c(Nc3ccc(F)c(Cl)c3)ncnc2cc1O[C@H]1CCOC1 [14d, (S,E)-N-(4-((3-chloro-4-fluorophenyl)amino)-7-((tetrahydrofuran-3-yl)oxy)quinazolin-6-yl)-2-(2-(piperidin-1-yl)ethylidene)hydrazine carboxamide] | – | – | – | Morphologic changes of A549 cells (AO staining), apoptosis (A549 cells [2]): can induce A549 cell apoptosis; Freq Sub-G1 (A549 cells [3]): 0.06%; Freq G2 (percentage of cells in G2/M phase) (A549 cells [3]): 23.62%; Freq S (A549 cells [3]): 48.44%; Freq G1 (A549 cells [3]): 27.08%
CN(C)CCn1cccc1/C=N/NC(=O)Nc1cc2c(Nc3ccc(F)c(Cl)c3)ncnc2cc1O[C@H]1CCOC1 [19b, (S,E)-N-(4-((3-chloro-4-fluorophenyl)amino)-7-((tetrahydrofuran-3-yl)oxy)quinazolin-6-yl)-2-((1-(2-(dimethylamino)ethyl)-1H-pyrrol-2-yl)methylene)hydrazine carboxamide] | – | – | – | Morphologic changes of A549 cells (AO staining), apoptosis (A549 cells [2]): can induce A549 cell apoptosis; Freq Sub-G1 (A549 cells [3]): 0.05%; Freq G2 (percentage of cells in G2/M phase) (A549 cells [3]): 22.31%; Freq S (A549 cells [3]): 43.84%; Freq G1 (A549 cells [3]): 33.23%
CN(C)C/C=C/C(=O)Nc1cc2c(Nc3ccc(F)c(Cl)c3)ncnc2cc1O[C@H]1CCOC1 [Afatinib, reference compound] | – | – | – | Freq Sub-G1 (A549 cells [3]): 0.03%; Freq G2 (percentage of cells in G2/M phase) (A549 cells [3]): 47.45%; Freq S (A549 cells [3]): 12.92%; Freq G1 (A549 cells [3]): 39.41%
O=C(N/N=C/c1ccc(O)cc1)Nc1cc2c(Nc3ccc(F)c(Cl)c3)ncnc2cc1O[C@H]1CCOC1 [BMC201725-9o, (S,E)-N-(4-((3-chloro-4-fluorophenyl)amino)-7-((tetrahydrofuran-3-yl)oxy)quinazolin-6-yl)-2-(4-hydroxybenzylidene)hydrazine carboxamide] | – | – | – | solubility [4]: unsatisfactory solubility; IC50 (EGFR): 0.056 µM
